A word on the IC50: it is the concentration needed to halve the response being measured. By Papp A→B is commonly meant how fast a substance crosses the layer from the apical side. Broadly, the Papp B→A is the apparent permeability from the basolateral to the apical side of a cell layer. One may read the solubility as the dissolved amount per volume that the medium holds. A low value points to a poorly soluble substance.

The source of these data is EP1704862A1, “2,5-bis(tetrahydroxybutyl)pyrazines for the treatment of osteoarthritis and rheumatoid arthritis” (ROTTAPHARM S.P.A., priority 2005, dated 2006).

Like-named read-outs stand apart in the source and are kept apart here.

For series [1], the system named is NO Synthesis. To be noted: Human articular chondrocytes, IL-1β induced; Free Rad.Biol.Med. 33, 1097-1105, 2002; read-out: NO Synthesis inhibitory activity IC50; cited from earlier work.
The subject of series [2] is PGE2 Synthesis. To be noted: Human articular chondrocytes, IL-1β induced; Free Rad.Biol.Med. 33, 1097-1105, 2002; read-out: PGE2 Synthesis inhibitory activity IC50; cited from earlier work.
Another series deals with GAG Release. To be noted: Human articular cartilage, IL-1β induced; JPET, 308, 767-773, 2004; read-out: GAG Release inhibitory activity IC50; cited from earlier work.
A short description of series [3]: Metabolic stability in dog liver S9 fraction. The settings on record: dog liver S9, 1µM, average of two experiments. The series is classed as in vitro ADME. An excerpt: (§1) Metabolic stability for the compounds of the invention has been assessed using rat, dog and human liver S9 fractions, using the same methods as described in the literature (R Singh et al., Rapid Commun. Mass Spectrom., 10, 9, 1019-26, 1996).
(§2) Permeability and metabolic stability data are the average of two experiments.

Series [4] in a line: Metabolic stability in human liver S9 fraction. The series is classed as in vitro ADME. The settings on record: human liver S9, 1µM, average of two experiments.
From the text: as §1, §2

Series [5] concerns PGE2 Synthesis. The series is described as follows: IL-1β induced PGE2 synthesis in chondrocyte culture (RIA). The settings on record: Oryctolagus cuniculus, rabbit articular chondrocytes, stimulation with 0.3 ng/mL of IL-1β, 24 h, read-out: PGE2 Synthesis inhibitory activity IC50. The format is cell-based, New Zealand white rabbits. The procedure:
(§3) Inhibitory effects of compounds of this invention were assessed according to the following in vitro assay:
(§4) Normal articular chondrocytes were obtained from young New Zealand white rabbits. Shoulders, femoral heads and knees were detached and transferred under a laminar flow hood. The articular cartilage was removed from the articular surfaces under sterile conditions. Tissue fragments were successively digested in an incubator (37°C, 5% CO2/95% air) with enzymes dissolved in DMEM plus 50 µg/ml gentamicin and sterile filtered. The three-step digestion was carried out with 0.05% testicular hyaluronidase for 15 min, followed by 0.25% trypsin for 30 min, and 0.2% clostridium collagenase for 90 min. At the end of the incubation period, chondrocyte suspension was two-fold diluted with DMEM plus 10% FCS, passed through a 200 µm and a 50 µm nylon sieves to remove debris and undigested matrix particles. […]
PGE2 released into the culture medium was determined with a RadioImmunoAssay (RIA) performed according to the instructions of the PGE2 antiserum manufacturer (Sigma). […] The supernatant was counted in 7 ml of Ultima-Gold MV® and the amount of radioactivity measured in a Packard Tricarb β-counter. […]

Series [6] in a line: Apparent permeability (Papp) across TC-7 cell monolayer. The series is classed as in vitro ADME. To be noted: human, Caco-2; TC-7 cells, pH 6.5/7.4, average of two experiments.
From the text: The preferred route of administration for the compounds of the invention is oral, therefore the compound should have suitable permeability across the human intestinal epithelia to allow absorption into the circulation. However, also when the parenteral route is chosen for administration, an effective compound must be sufficiently permeable across biological membranes to reach the site/s of action. The permeability of compounds of formula (I) has been assessed in vitro using the apparent permeability coefficients approach (Papp) (Pharmacokinetics Optimization in Drug Research: biological, physicochemical and computational strategies; Bernard Testa, Han van de Waterbeemd, 2001, Wiley). The TC-7 clone was used instead of the Caco-2 cell line for this assessment, since it was reported that the two human intestinal epithelial cell lines are equivalent as far as drug transport characteristics are concerned and thus can be used interchangeably to predict absorption in humans after oral administration (MC Gres et al., Pharm. Res., 15, 5, 726-33, 1998); the experimental work was carried out as described in the mentioned literature.
as §2

The next series in a line: Solubility in water. The format is physicochemical. The settings on record: pH 7.4, aqueous buffer.
Series [7] relates to IL-1β induced GAG release. The series is described as follows: IL-1β induced GAG release in chondrocyte culture (DMB assay). The series is classed as cell-based, New Zealand white rabbits. To be noted: Oryctolagus cuniculus, rabbit articular chondrocytes, stimulation with 0.3 ng/mL of IL-1β, 24 h, read-out: GAG Release inhibitory activity IC50. The procedure: as §3, §4
Proteoglycans associated to cell monolayer were quantified with Dimethylmethylene blue (DMB) assay. […] The absorbance was read within 20 min at 590 nm with a HTS7000plus plate reader. […] The optical density was measured at 590 nm using a plate reader HTS7000plus (Perkin Elmer).

Series [8] has as its system NO Synthesis. The series is described as follows: IL-1β induced NO synthesis in chondrocyte culture (nitrite, DAN fluorometric method). The series is classed as cell-based, New Zealand white rabbits. The settings on record: Oryctolagus cuniculus, rabbit articular chondrocytes, stimulation with 0.3 ng/mL of IL-1β, 24 h, read-out: NO Synthesis inhibitory activity IC50. The procedure: as §3
Normal articular chondrocytes were obtained from young New Zealand white rabbits. Shoulders, femoral heads and knees were detached and transferred under a laminar flow hood. The articular cartilage was removed from the articular surfaces under sterile conditions. Tissue fragments were successively digested in an incubator (37°C, 5% CO2/95% air) with enzymes dissolved in DMEM plus 50 µg/ml gentamicin and sterile filtered. The three-step digestion was carried out with 0.05% testicular hyaluronidase for 15 min, followed by 0.25% trypsin for 30 min, and 0.2% clostridium collagenase for 90 min. […]
NO production by chondrocytes was measured as nitrite, a stable end product and a reliable indicator of NO synthesis. Nitrites released in the culture supernatant were quantified with the fluorometric method according to Misko (Misko TP, Schilling RJ, Salvemini D, Moore WM, Currie MG. Anal Biochem; 214:11-16, 1993). […] The intensity of fluorescence was recorded in a 96-well plate (optiplate, Packard) with a plate reader (HTS7000 plus, Perkin Elmer) with excitation at 360 nm and emission read at 465 nm. Nitrite concentrations were calculated from a standard curve of sodium nitrite ranging from 10 to 100 ng/ml.

The nature of series [9]: Metabolic stability in rat liver S9 fraction. The format is in vitro ADME. The settings on record: rat liver S9, 1µM, average of two experiments.
From the text: as §1, §2

In series [10] the test system is PGE2 Synthesis. The settings on record: Human chondrocytes, IL-1β induced; Osteoarthritis and Cartilage, 2000, 8(6), 434; read-out: PGE2 Synthesis inhibitory activity IC50; cited from earlier work.
The subject of series [11] is NO Synthesis. To be noted: Bovine articular cartilage, IL-1β induced; Osteoarthritis and Cartilage, 2000, 8(6), 434; read-out: NO Synthesis inhibitory activity IC50; cited from earlier work.

For the molecule `O=C(O[C@@H]1Cc2c(O)cc(O)cc2O[C@@H]1c1cc(O)c(O)c(O)c1)c1cc(O)c(O)c(O)c1` [EGCG, epigallocatechin gallate], the IC50 in the series on NO Synthesis [1] was ~200 µM; with PGE2 Synthesis [2], > 200 µM; in the series with GAG Release, ~100 µM.
With `OC[C@@H](O)[C@@H](O)[C@H](O)c1cnc([C@@H](O)[C@H](O)[C@H](O)CO)cn1` [Compound 1.1, Bis-(1R, 1'R, 2S, 2'S, 3R, 3'R)-1,2,3,4-butanetetrol-1,1'-(2,5-pyrazinediyl)], the “In vitro metabolism Parent remaining (%) Test concentration 1µM Dog” value in series [3] is reported as 96%. Also, in [4], the “In vitro metabolism Parent remaining (%) Test concentration 1µM Human” value was found to be 108%. Moreover, the figures for the IC50 (in the series with PGE2 Synthesis [5]; in series [7]; with NO Synthesis [8]) were 4 µM, 46 µM and 8 µM, respectively. The Papp A→B in series [6] stood at 113 ×10⁻⁶ cm/s. Besides, in series [6], the Papp B→A is 72.9 ×10⁻⁶ cm/s. Also, the solubility in the series “Solubility in water” is ≤ 100 mM. Besides, in series [9], the “In vitro metabolism Parent remaining (%) Test concentration 1µM Rat” value was 110%.
As for `COc1nccc(-c2c(-c3ccc(F)cc3)ncn2C2CCNCC2)n1` [SB-242235], the IC50 in the series with PGE2 Synthesis [10] is 1 to 3 µM; in the series on NO Synthesis [11] it was 1 µM.
